Results as given in BindingDB's records for patent US20240140931 (Hutchmed, 2024).

Biological target: T1, Tyrosine-protein phosphatase non-receptor type 11 (Homo sapiens, UniProt Q06124)
T1 sequence (Q06124 whole entry): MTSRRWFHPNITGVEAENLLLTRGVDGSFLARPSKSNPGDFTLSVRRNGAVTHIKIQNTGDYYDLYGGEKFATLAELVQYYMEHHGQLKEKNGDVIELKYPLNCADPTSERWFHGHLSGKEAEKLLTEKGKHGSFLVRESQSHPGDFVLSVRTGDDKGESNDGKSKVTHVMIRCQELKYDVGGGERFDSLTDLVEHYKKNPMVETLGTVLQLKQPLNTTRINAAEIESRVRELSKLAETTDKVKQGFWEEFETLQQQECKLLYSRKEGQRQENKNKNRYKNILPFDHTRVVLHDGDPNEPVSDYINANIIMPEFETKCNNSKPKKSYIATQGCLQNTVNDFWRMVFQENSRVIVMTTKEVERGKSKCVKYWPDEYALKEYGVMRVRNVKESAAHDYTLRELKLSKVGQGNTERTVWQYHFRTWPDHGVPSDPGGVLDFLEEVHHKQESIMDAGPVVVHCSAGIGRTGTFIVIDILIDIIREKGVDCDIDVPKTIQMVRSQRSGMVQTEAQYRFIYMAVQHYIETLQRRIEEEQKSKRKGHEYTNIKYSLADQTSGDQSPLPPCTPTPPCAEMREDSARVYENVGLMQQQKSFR
Assay: Assay of Full-Length SHP2 Phosphatase Activity Assay
Description: 1. Reagents and MaterialsHuman full-length SHP2 recombinant protein: BPS Bioscience, Cat #79018;SHP2 substrate DiFMUP (1 mM): BPS Bioscience, Cat #79769;SHP2 activating peptide (100 μM): BPS Bioscience, Cat #79319-2;DTT: Merck, Cat #DTT-RO;384-well plate: Corning, Cat #3575;96-well plate: Thermo Fisher Scientific, Cat #249952;Instrument: EnVision 2104, PerkinElmer.2. Preparation of Reaction SolutionsThe test compound was dissolved in DMSO and diluted with DMSO to 100.0 μM, and the compound was further 3-fold diluted with DMSO to: 100.00, 33.33, 11.11, 3.70, 1.23, 0.41, 0.14 and 0.05 μM.

SMILES | IC50 [nM]
C#Cc1ccc2c(c1)[C@@H](N)C1(CCN(c3cc(=O)n(-c4ccc(F)c(F)c4Cl)c(C)n3)CC1)C2 (atropisomer, axis not shown) [US20240140931, Compound 113] | 5
C#Cc1ccc2c(c1)[C@@H](N)C1(CCN(c3cc(=O)n(-c4cc(OC)ccc4Cl)c(C)n3)CC1)C2 [US20240140931, Compound 44] | 13
Cc1nc(N2CCC3(CC2)Cc2ccc(C#CCN(C)C)cc2[C@H]3N)cc(=O)n1-c1cccc(Cl)c1Cl [US20240140931, Compound 52] | < 0.5
Cc1nc(N2CCC3(CC2)Cc2ccc(SC4COC4)cc2[C@H]3N)cc(=O)n1-c1cccc(Cl)c1Cl [US20240140931, Compound 81] | 2
C#Cc1ccc2c(c1)[C@@H](N)C1(CCN(c3cc(=O)n(-c4cccc(C#N)c4Cl)c(C)n3)CC1)C2 [US20240140931, Compound 267] | > 100
C#Cc1ccc2c(c1)[C@@H](N)C1(CCN(c3cc(=O)n(-c4cccc(C#N)c4Cl)c(C)n3)CC1)C2 [US20240140931, Compound 268] | 1
